Test results as given in patent publication US20110028360A1, “ORGANIC CORROSION INHIBITOR PACKAGE FOR ORGANIC ACIDS” (M-I DRILLING FLUIDS U.K. LIMITED, priority 2008, published 2011).

Tests used:
[1] = EC50 Toxicity according to ISO/DP 10253
Method: (§1) Propoxylated prop-2-yn-1-ol, as a raw material for the corrosion inhibitor compositions disclosed herein, was tested for ecotoxicology. Biodegradation was measured according to OECD 301B. EC50 Toxicity was measured according to ISO/DP 10253. Bioaccumulation log Pow was measured according to OECD 117.

[2] = Bioaccumulation log Pow according to OECD 117; format: physicochemical
Method: as §1

[3] = Biodegradation according to OECD 301B
Method: as §1

Bioaccumulation Log Pow [2]: 2
Biodegradation [3]: 100% (OECD 301B)
Substance: propoxylated prop-2-yn-1-ol
Toxicity [1]: 100 mg/L
